Assay results from patent US11214578B2, “Urea/carbamates FAAH MAGL or dual FAAH/MAGL inhibitors and uses thereof” (Northeastern University, priority 2014, dated 2022).

How the values were obtained:
ΔTM rat FAAH = biological target: T1, ΔTM rat FAAH (Rattus norvegicus, UniProt P97612); assay: Fluorescent assay protocol for ΔTM rat FAAH (AAMCA substrate); type: biochemical; conditions: 15 min preincubation, read-out: IC50 rFAAH
T1 construct: Preparation of Transmembrane Domain-Deleted Rat FAAH (ΔTM rFAAH); made in house; host or cells: E. coli
T1 sequence (P97612 30-579 limits assumed): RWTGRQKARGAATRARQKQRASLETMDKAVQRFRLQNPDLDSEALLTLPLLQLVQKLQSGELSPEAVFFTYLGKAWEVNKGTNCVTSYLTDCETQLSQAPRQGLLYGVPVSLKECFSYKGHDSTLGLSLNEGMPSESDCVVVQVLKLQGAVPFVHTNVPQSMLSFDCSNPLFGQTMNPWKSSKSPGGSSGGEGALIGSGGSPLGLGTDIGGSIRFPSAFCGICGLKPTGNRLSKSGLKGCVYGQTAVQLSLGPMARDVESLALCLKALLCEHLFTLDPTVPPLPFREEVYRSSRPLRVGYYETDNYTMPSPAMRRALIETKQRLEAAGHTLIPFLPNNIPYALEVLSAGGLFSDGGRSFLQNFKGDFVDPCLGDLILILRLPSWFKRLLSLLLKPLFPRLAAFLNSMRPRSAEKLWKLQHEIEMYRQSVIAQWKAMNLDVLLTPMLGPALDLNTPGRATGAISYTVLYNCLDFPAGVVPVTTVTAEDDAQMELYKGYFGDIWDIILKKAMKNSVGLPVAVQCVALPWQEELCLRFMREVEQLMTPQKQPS
Outline: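 ΔTM rat FAAH (15 μg) was pre-incubated 15 min at 25° C with compound (screening at 1, 10 and 100 μM), then reacted with the fluorigenic substrate AAMCA. Percent inhibition came from fluorescence at 3 h (linear kinetics) relative to no-inhibitor controls, in triplicate.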

Human FAAH (MBPΔTMhFAAH) = biological target: T2, Human FAAH (MBPΔTMhFAAH) (Homo sapiens, UniProt O00519); assay: Fluorescent assay protocol for hFAAH; type: biochemical; conditions: human FAAH (MBP fusion, ΔTM), procedure as for rFAAH
T2 construct: made in house; host or cells: E. coli (pMALcE4 vector)
T2 sequence (O00519 30-579 limits assumed): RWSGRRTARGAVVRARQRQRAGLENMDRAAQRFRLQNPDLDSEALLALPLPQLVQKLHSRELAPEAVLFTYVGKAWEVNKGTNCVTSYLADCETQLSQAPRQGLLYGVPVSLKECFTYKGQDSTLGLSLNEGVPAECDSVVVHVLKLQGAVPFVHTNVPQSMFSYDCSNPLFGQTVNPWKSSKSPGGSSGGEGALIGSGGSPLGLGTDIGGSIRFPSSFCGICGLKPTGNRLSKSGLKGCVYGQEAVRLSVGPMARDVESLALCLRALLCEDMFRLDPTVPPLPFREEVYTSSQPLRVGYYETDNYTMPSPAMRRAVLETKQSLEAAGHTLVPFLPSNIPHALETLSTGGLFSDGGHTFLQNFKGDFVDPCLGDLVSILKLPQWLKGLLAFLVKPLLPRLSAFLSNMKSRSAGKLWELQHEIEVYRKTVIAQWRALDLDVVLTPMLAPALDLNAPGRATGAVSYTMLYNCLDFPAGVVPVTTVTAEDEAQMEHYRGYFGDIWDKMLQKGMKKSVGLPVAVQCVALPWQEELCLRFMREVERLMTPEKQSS
Outline: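 MBP-fused ΔTM human FAAH from E. coli, pre-incubated 15 min at 25 °C with compound in 50 mM HEPES, 1 mM EDTA, 0.1% BSA, pH 7.4 (DMSO below 8%). Substrate AAMCA 20 μM (2×Km); fluorescence (ex 360/em 460) at 3 h gave % inhibition vs uninhibited control, triplicate, IC50 fitted.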

Rat MAGL (rMAGL) = biological target: T3, Rat MAGL (rMAGL) (Rattus norvegicus, UniProt Q8R431); assay: Fluorescent assay protocol for rMAGL; type: biochemical; conditions: recombinant rat MAGL, procedure as for hMAGL; read-out: IC50 rMAGL
T3 construct: made in house; host or cells: E. coli
T3 sequence (Q8R431 1-303): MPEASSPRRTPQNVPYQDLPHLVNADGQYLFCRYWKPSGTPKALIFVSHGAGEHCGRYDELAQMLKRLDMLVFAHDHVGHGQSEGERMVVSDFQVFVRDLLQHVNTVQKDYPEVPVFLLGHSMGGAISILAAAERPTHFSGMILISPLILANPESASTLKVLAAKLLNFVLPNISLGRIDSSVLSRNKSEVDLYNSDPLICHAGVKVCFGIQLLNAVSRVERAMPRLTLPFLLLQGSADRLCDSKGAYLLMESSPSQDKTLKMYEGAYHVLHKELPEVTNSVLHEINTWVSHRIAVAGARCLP
Outline: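 Rat MAGL run as for the human enzyme: AHMMCE substrate hydrolysis to fluorescent coumarin followed at 25° C. for 120 min, read every 15 min at 360/460 nm.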

Human MAGL (hMAGL) = biological target: T4, Human MAGL (hMAGL) (Homo sapiens, UniProt Q99685); assay: Fluorescent assay protocol for hMAGL (AHMMCE substrate); type: biochemical; conditions: recombinant human MAGL, AHMMCE substrate, 15 min preincubation; read-out: IC50 hMAGL
T4 construct: hexahistidine; made in house; host or cells: E. coli
T4 sequence (Q99685 1-303): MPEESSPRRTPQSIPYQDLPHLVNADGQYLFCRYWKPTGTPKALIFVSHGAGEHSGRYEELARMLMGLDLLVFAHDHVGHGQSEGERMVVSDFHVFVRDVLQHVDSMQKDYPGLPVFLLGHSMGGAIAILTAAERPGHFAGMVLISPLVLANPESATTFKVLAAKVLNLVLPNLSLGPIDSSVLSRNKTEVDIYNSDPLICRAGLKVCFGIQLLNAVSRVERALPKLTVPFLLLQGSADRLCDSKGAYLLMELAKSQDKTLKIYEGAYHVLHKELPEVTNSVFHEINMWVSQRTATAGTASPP
Outline: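 Hydrolysis of AHMMCE by human MAGL was monitored at 25°C for 120 min, with fluorescence at 360/460 nm recorded every 15 min and converted to 4-methylcoumarin using external standards. IC50 values were derived from triplicate wells at each inhibitor concentration.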

[1] = Blood brain barrier (BBB) permeability studies; conditions: brain and plasma; blood-brain distribution, in vivo; read-out: brain/plasma ratio
Source text: Novel compounds were studied for their abilities to cross the blood brain barrier based on procedures adapted from Cluny, et al (2010), British journal of pharmacology 161: 629; Rahn, et al (2011) Pharmacology biochemistry, and behavior 98: 493; Wood et al (2013) Life sciences 92: 482.

[2] = system: LiCl-induced anticipatory nausea in rats; assay: Anticipatory nausea studies (LiCl-paired context, gapes); type: in vivo, rat; conditions: for amelioration of LiCl-induced anticipatory nausea: 20 mg/Kg; for Mean number of gapes elicited by a LiCl-paired context: 20 mg/Kg pretreatment, vehicle 22 gapes
Source text: Novel compounds were studied for their ability to ameliorate LiCl-induced anticipatory nausea in rats following the procedures described in Limebeer, C. L. et al Psychopharmacology (2014) 231:603-612. […] Mean number of gapes elicited by a LiCl-paired context in an anticipatory nausea test following pretreatment with a MAGL inhibitor compound 46 and dual FAAH/MAGL inhibitor 52 were 8 and 3 respectively, compared to animals treated with vehicle which show 22 gapes.

[3] = system: human prostate cancer PC-3M cells; assay: Xenograft model of advanced prostate cancer; type: in vivo, mouse; conditions: nude mice, PC-3M xenograft, 20 mg/kg daily i.p. for 21 days
Method: Compounds were studied for their abilities to retard tumor growth in mouse xenograft model expressing aggressive human prostate cancer PC-3M cells. Tumors were established in immunodeficient nude mice (Taconic Farms) according to standard protocol and mice were divided in two groups. Mouse in each group was injected intraperitoneally (i.p.) with vehicle or compounds (20 mg/kg daily) for 21 days. Tumor sizes were measured with callipers every 3 days.

Row | IC50 (ΔTM rat FAAH) [nM] | IC50 (Human FAAH (MBPΔTMhFAAH)) [nM] | IC50 (Rat MAGL (rMAGL)) [nM] | IC50 (Human MAGL (hMAGL)) [nM] | Kp [1] | Compound | amelioration of LiCl-induced anticipatory nausea [2] | Mean number of gapes elicited by a LiCl-paired context [2] | reduction in tumor sizes ([3]; compared to vehicle) [%] | tumor sizes ([3]; vehicle 185 mm^3) [mm^3]
1 | 10 to 100 | 10 to 100 | > 1000 | > 1000 | 0.03 | C[C@H]1CN(C(=O)Nc2cccc(-c3cccc(C(N)=O)c3)c2)CCN1Cc1ccc2ccccc2n1 [Example 1, (S)—N-(3′-carbamoyl-[1,1′-biphenyl]-3-yl)-3-methyl-4-(quinolin-2-ylmethyl) piperazine-1-carboxamide] | – | – | – | –
2 | 10 to 100 | 10 to 100 | > 1000 | > 1000 | 0.17 | NC(=O)c1cccc(-c2cccc(NC(=O)N3CCC(c4ccccc4)CC3)c2)c1 [Example 7, N-(3′-carbamoyl-[1,1′-biphenyl]-3-yl)-4-phenylpiperidine-1-carboxamide] | – | – | – | –
3 | 10 to 100 | 10 to 100 | – | – | – | N#Cc1cccc(OC(=O)N2CCC(C(c3ccccc3)c3ccccc3)CC2)c1 [Example 46, 3-Cyanophenyl 4-benzhydrylpiperidine-1-carboxylate] | ameliorated anticipatory nausea | 8 | 43 | 105
4 | – | 10 to 100 | – | – | 0.71 | N#Cc1cccc(OC(=O)N2CCC(Cc3ccccc3)CC2)c1 [Example 52, 3-cyanophenyl 4-benzylpiperidine-1-carboxylate] | ameliorated anticipatory nausea | 3 | – | –
5 | 10 to 100 | 10 to 100 | > 1000 | > 1000 | – | O=C(N1C[C@@H]2C[C@H]1CN2Cc1cccc(-c2ccccc2)c1)n1cnc(Br)c1 [Example 100, ((1S,4S)-5-([1,1′-biphenyl]-3-ylmethyl)-2,5-diazabicyclo[2.2.1]heptan-2-yl)(4-bromo-1H-imidazol-1-yl)methanone] | – | – | – | –

Row | Compound | IC50 (ΔTM rat FAAH) [nM] | IC50 (Human FAAH (MBPΔTMhFAAH)) [nM] | IC50 (Rat MAGL (rMAGL)) [nM] | IC50 (Human MAGL (hMAGL)) [nM] | Kp [1] | amelioration of LiCl-induced anticipatory nausea [2] | Mean number of gapes elicited by a LiCl-paired context [2] | reduction in tumor sizes ([3]; compared to vehicle) [%] | tumor sizes ([3]; vehicle 185 mm^3) [mm^3]
6 | O=C(Oc1ccccc1)N1C[C@@H]2C[C@H]1CN2Cc1cccc(-c2ccccc2)c1 [Example 101, phenyl (1S,4S)-5-([1,1′-biphenyl]-3-ylmethyl)-2,5-diazabicyclo[2.2.1]heptane-2-carboxylate] | 10 to 100 | 10 to 100 | > 1000 | > 1000 | – | – | – | – | –
